Reference: US20220081435A1, “ANDROGEN RECEPTOR PROTEIN DEGRADERS” (THE REGENTS OF THE UNIVERSITY OF MICHIGAN, priority 2019, published 2022)
Read-outs that look alike come from different tables or passages of the source.

Molecular target: T1, AR protein (Homo sapiens, UniProt P10275, T878A)
T1 construct: The percent AR protein degradation induced by these compounds at various concentrations in LNCaP cells; host or cells: LNCaP
T1 sequence (P10275 1-920 T878A): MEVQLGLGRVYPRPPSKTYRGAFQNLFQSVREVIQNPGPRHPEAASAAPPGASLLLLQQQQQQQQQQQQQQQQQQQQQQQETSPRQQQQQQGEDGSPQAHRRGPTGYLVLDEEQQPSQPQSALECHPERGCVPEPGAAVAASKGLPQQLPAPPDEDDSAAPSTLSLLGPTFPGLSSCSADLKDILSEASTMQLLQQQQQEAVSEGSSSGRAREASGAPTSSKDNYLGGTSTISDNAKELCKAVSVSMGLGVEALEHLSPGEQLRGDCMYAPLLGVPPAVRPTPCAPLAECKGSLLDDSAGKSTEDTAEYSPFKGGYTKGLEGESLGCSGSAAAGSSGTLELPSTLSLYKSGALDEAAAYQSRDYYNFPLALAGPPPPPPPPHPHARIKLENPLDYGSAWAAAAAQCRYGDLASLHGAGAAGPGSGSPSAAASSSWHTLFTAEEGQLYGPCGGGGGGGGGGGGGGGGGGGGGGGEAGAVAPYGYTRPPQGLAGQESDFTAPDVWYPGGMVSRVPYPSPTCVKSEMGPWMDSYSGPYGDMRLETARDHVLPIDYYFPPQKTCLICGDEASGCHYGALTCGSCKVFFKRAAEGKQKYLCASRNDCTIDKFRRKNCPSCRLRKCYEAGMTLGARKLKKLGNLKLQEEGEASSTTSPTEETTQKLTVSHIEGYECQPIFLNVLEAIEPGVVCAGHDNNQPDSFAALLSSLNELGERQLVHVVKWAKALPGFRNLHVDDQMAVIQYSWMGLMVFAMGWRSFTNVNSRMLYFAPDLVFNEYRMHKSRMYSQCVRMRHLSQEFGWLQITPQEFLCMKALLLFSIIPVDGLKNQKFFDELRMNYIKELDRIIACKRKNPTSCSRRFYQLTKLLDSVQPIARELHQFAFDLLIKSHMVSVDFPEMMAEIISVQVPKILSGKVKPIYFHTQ
Test: AR protein degradation in LNCaP cells (Western blotting)
Format: cell-based
Settings: for Dmax at 0.01 µM / Dmax at 0.1 µM / Dmax at 1 µM / Dmax at 10 µM / AR degradation (Western blotting, dose-dependent): LNCaP; for Dmax at 0.1 µM / Dmax at 1 µM / Dmax at 10 µM: read-out: % AR protein degradation in LNCaP Cells
Experimental: Cell lines and Cell Culture: All the LNCaP, VCaP and 22RV1 cells used were purchased from American Type Culture Collection (ATCC). […] All of the cells were supplemented with 10% fetal bovine serum (Invitrogen) at 37° C. in a humidified 5% CO2 incubator.
Western Blotting. Treated cells were lysed by RIPA buffer supplemented with protease and phosphatase inhibitors. […] Software ImageJ was used to quantify the percentage of AR degradation. The net protein bands and loading controls are calculated by deducting the background from the inverted band value. The final relative quantification values are the ratio of net band to net loading control.

[1] = 0.01 μM, treatment time 6 h, average of three independent experiments
[2] = 0.1 μM, treatment time 6 h, average of three independent experiments
[3] = 1 μM, treatment time 6 h, average of three independent experiments
[4] = 10 μM, treatment time 6 h, average of three independent experiments

Compound | % AR protein degradation in LNCaP Cells [2] [%] | % AR protein degradation in LNCaP Cells [3] [%] | Dmax at 0.01 µM [1] [%] | Dmax at 0.1 µM [2] [%] | Dmax at 1 µM [3] [%] | also measured
Cc1cc([C@H](C(=O)N2C[C@H](O)C[C@H]2C(=O)N[C@@H](CC(=O)N2CCN(c3ccc(C#Cc4ccc(C(=O)N[C@H]5C(C)(C)[C@H](Oc6ccc(C#N)c(Cl)c6)C5(C)C)cc4)cn3)CC2)c2ccc(-c3scnc3C)cc2)C(C)C)on1 [Compound 28, (2S,4R)—N—((S)-3-(4-(5-((4-(((1r,3r)-3-(3-Chloro-4-cyanophenoxy)-2,2,4,4-tetramethylcyclobutyl)carbamoyl)phenyl)ethynyl)pyridin-2-yl)piperazin-1-yl)-1-(4-(4-methylthiazol-5-yl)phenyl)-3-oxopropyl)-4-hydroxy-1-((R)-3-methyl-2-(3-methylisoxazol-5-yl)butanoyl)pyrrolidine-2-carboxamide] | 72 | 93 |  |  |  | % AR protein degradation in LNCaP Cells [1]: 22%
Cc1ncsc1-c1ccc(CNC(=O)C2C[C@@H](O)CN2C(=O)[C@@H](NC(=O)CCCCCCc2ccc(C#Cc3ccc(N4C(=S)N(c5ccc(C#N)c(C(F)(F)F)c5)C(=O)C4(C)C)cc3)cn2)C(C)(C)C)cc1 (stereo partly drawn) [Compound 19, (4R)-1-((S)-2-(7-(5-((4-(3-(4-Cyano-3-(trifluoromethyl)phenyl)-5,5-dimethyl-4-oxo-2-thioxoimidazolidin-1-yl)phenyl)ethynyl)pyridin-2-yl)heptanamido)-3,3-dimethylbutanoyl)-4-hydroxy-N-(4-(4-methylthiazol-5-yl)benzyl)pyrrolidine-2-carboxamide] |  |  | 30 | 63 | 96 | 
Cc1ncsc1-c1ccc(CNC(=O)C2C[C@@H](O)CN2C(=O)[C@@H](NC(=O)CCCCNC(=O)c2ccc(N3C(=S)N(c4ccc(C#N)c(C(F)(F)F)c4)C(=O)C3(C)C)cc2F)C(C)(C)C)cc1 (stereo partly drawn) [Compound 10, (4R)-1-((S)-2-(5-(4-(3-(4-Cyano-3-(trifluoromethyl)phenyl)-5,5-dimethyl-4-oxo-2-thioxoimidazolidin-1-yl)-2-fluorobenzamido)pentanamido)-3,3-dimethylbutanoyl)-4-hydroxy-N-(4-(4-methylthiazol-5-yl)benzyl)pyrrolidine-2-carboxamide] |  |  |  |  |  | Dmax at 0.1 µM (6 h): 16%; Dmax at 1 µM (6 h): 20%; Dmax at 10 µM (6 h): 25%
Cc1cc([C@H](C(=O)N2C[C@H](O)C[C@H]2C(=O)N[C@@H](CC(=O)NCCCN2CCN(c3ccc(C#Cc4ccc(N5C(=S)N(c6ccc(C#N)c(C(F)(F)F)c6)C(=O)C5(C)C)cc4)cn3)CC2)c2ccc(-c3scnc3C)cc2)C(C)C)on1 [Compound 27, (2S,4R)—N—((S)-3-((3-(4-(5-((4-(3-(4-Cyano-3-(trifluoromethyl)phenyl)-5,5-dimethyl-4-oxo-2-thioxoimidazolidin-1-yl)phenyl)ethynyl)pyridin-2-yl)piperazin-1-yl)propyl)amino)-1-(4-(4-methylthiazol-5-yl)phenyl)-3-oxopropyl)-4-hydroxy-1-((R)-3-methyl-2-(3-methylisoxazol-5-yl)butanoyl)pyrrolidine-2-carboxamide] |  |  | 27 | 75 | 94 | 
Cc1ncsc1-c1ccc([C@H](C)NC(=O)C2C[C@@H](O)CN2C(=O)[C@@H](NC(=O)CN2CCN(c3ccc(C#Cc4ccc(N5C(=S)N(c6ccc(C#N)c(C(F)(F)F)c6)C(=O)C5(C)C)cc4)cn3)CC2)C(C)(C)C)cc1 (stereo partly drawn) [Compound 24, (4R)-1-((S)-2-(2-(4-(5-((4-(3-(4-Cyano-3-(trifluoromethyl)phenyl)-5,5-dimethyl-4-oxo-2-thioxoimidazolidin-1-yl)phenyl)ethynyl)pyridin-2-yl)piperazin-1-yl)acetamido)-3,3-dimethylbutanoyl)-4-hydroxy-N—((S)-1-(4-(4-methylthiazol-5-yl)phenyl)ethyl)pyrrolidine-2-carboxamide] |  |  |  | 3 | 31 | Dmax at 10 µM [4]: 28%
Cc1ncsc1-c1ccc([C@H](CC(=O)N2CCC(N3CCC(C#Cc4ccc(C(=O)N[C@H]5C(C)(C)[C@H](Oc6ccc(C#N)c(Cl)c6)C5(C)C)cc4)CC3)CC2)NC(=O)[C@@H]2C[C@@H](O)CN2C(=O)[C@@H](NC(=O)C2(C#N)CC2)C(C)(C)C)cc1 [Compound 35, (2S,4R)—N—((S)-3-(4-((4-(((1r,3r)-3-(3-Chloro-4-cyanophenoxy)-2,2,4,4-tetramethyl-cyclobutyl)carbamoyl)phenyl)ethynyl)-[1,4′-bipiperidin]-1′-yl)-1-(4-(4-methylthiazol-5-yl)phenyl)-3-oxopropyl)-1-((S)-2-(1-cyanocyclopropane-1-carboxamido)-3,3-dimethylbutanoyl)-4-hydroxypyrrolidine-2-carboxamide] | 99 | 100 |  |  |  | % AR protein degradation in LNCaP Cells [1]: 76%; AR degradation (Western blotting, dose-dependent) (at 10 nM): partial AR degradation; AR degradation (Western blotting, dose-dependent) (at both 100 nM and 1 μM): essentially complete AR degradation
Cc1ncsc1-c1ccc(CNC(=O)C2C[C@@H](O)CN2C(=O)[C@@H](NC(=O)CCCCCCCNC(=O)c2ccc(N3C(=S)N(c4ccc(C#N)c(C(F)(F)F)c4)C(=O)C3(C)C)cc2F)C(C)(C)C)cc1 (stereo partly drawn) [Compound 13, (4R)-1-((S)-2-(8-(4-(3-(4-Cyano-3-(trifluoromethyl)phenyl)-5,5-dimethyl-4-oxo-2-thioxoimidazolidin-1-yl)-2-fluorobenzamido)octanamido)-3,3-dimethylbutanoyl)-4-hydroxy-N-(4-(4-methylthiazol-5-yl)benzyl)pyrrolidine-2-carboxamide] |  |  | 8 | 29 | 65 | 
Cc1ncsc1-c1ccc([C@H](C)NC(=O)C2C[C@@H](O)CN2C(=O)[C@@H](NC(=O)N2CCN(c3ccc(C#Cc4ccc(N5C(=S)N(c6ccc(C#N)c(C(F)(F)F)c6)C(=O)C5(C)C)cc4)cn3)CC2)C(C)(C)C)cc1 (stereo partly drawn) [Compound 25, 4-(5-((4-(3-(4-Cyano-3-(trifluoromethyl)phenyl)-5,5-dimethyl-4-oxo-2-thioxoimid-azolidin-1-yl)phenyl)ethynyl)pyridin-2-yl)-N-((2S)-1-((4R)-4-hydroxy-2-(((S)-1-(4-(4-methylthiazol-5-yl)phenyl)ethyl)carbamoyl)pyrrolidin-1-yl)-3,3-dimethyl-1-oxobutan-2-yl)piperazine-1-carboxamide] | 0 | 12 |  |  |  | % AR protein degradation in LNCaP Cells [4]: 0%
Cc1ncsc1-c1ccc(CNC(=O)C2C[C@@H](O)CN2C(=O)[C@@H](NC(=O)CCCCCCCCCCNC(=O)c2ccc(N3C(=S)N(c4ccc(C#N)c(C(F)(F)F)c4)C(=O)C3(C)C)cc2F)C(C)(C)C)cc1 (stereo partly drawn) [Compound 16, (4R)-1-((S)-2-(11-(4-(3-(4-Cyano-3-(trifluoromethyl)phenyl)-5,5-dimethyl-4-oxo-2-thioxoimidazolidin-1-yl)-2-fluorobenzamido)undecanamido)-3,3-dimethylbutanoyl)-4-hydroxy-N-(4-(4-methylthiazol-5-yl)benzyl)pyrrolidine-2-carboxamide] |  |  | 11 | 48 | 86 | 
Cc1ncsc1-c1ccc(CNC(=O)C2C[C@@H](O)CN2C(=O)[C@@H](NC(=O)CCCCCCCCNC(=O)c2ccc(N3C(=S)N(c4ccc(C#N)c(C(F)(F)F)c4)C(=O)C3(C)C)cc2F)C(C)(C)C)cc1 (stereo partly drawn) [Compound 14, (4R)-1-((S)-2-(9-(4-(3-(4-Cyano-3-(trifluoromethyl)phenyl)-5,5-dimethyl-4-oxo-2-thioxoimidazolidin-1-yl)-2-fluorobenzamido)nonanamido)-3,3-dimethylbutanoyl)-4-hydroxy-N-(4-(4-methylthiazol-5-yl)benzyl)pyrrolidine-2-carboxamide] |  |  | 15 | 66 | 87 | 
